Tests used:
[1] = Aqueous solubility of compound at 2 mg measured for 24 hrs by HPLC analysis; format: physicochemical; settings: aqueous medium
[2] = molecular target: Human immunodeficiency virus type 1 reverse transcriptase (Human immunodeficiency virus 1) (UniProt Q72547); assay: Ratio of IC50 for nevirapine to IC50 for test compound for recombinant wild type HIV1 reverse transcriptase p66/p51
[3] = system: Human immunodeficiency virus 1; assay: Antiviral activity against HIV1 3B infected in human MT4 cells incubated assessed as reduction in virus-induced cytopathic effect for 5 days by MTT assay; format: functional, organism-based; settings: Human immunodeficiency virus 1, 3B, MT4, 120 h
[4] = system: Human immunodeficiency virus 1; assay: Antiviral activity against HIV1 harboring reverse transcriptase Y181C mutant infected in human MT4 cells assessed as reduction in virus-induced cytopathic effect incubated for 5 days by MTT assay; format: functional, organism-based; settings: Human immunodeficiency virus 1, MT4, 120 h
[5] = system: Human immunodeficiency virus 1; assay: Antiviral activity against HIV1 harboring reverse transcriptase Y188L mutant infected in human MT4 cells assessed as reduction in virus-induced cytopathic effect incubated for 5 days by MTT assay; format: functional, organism-based; settings: Human immunodeficiency virus 1, MT4, 120 h
[6] = Selectivity index, ratio of CC50 for human MT4 cells to EC50 for antiviral activity against HIV1 3B infected in human MT4 cells incubated for 5 days by MTT assay; format: toxicity, cell-based; settings: MT4 cells (uninfected for CC50; HIV-1 3B infected for EC50)
[7] = system: Human immunodeficiency virus 1; assay: Antiviral activity against HIV1 harboring reverse transcriptase E138K mutant infected in human MT4 cells assessed as reduction in virus-induced cytopathic effect incubated for 5 days by MTT assay; format: functional, organism-based; settings: Human immunodeficiency virus 1, MT4, 120 h
[8] = system: Human immunodeficiency virus 1; assay: Antiviral activity against HIV1 harboring reverse transcriptase K103N mutant infected in human MT4 cells assessed as reduction in virus-induced cytopathic effect incubated for 5 days by MTT assay; format: functional, organism-based; settings: Human immunodeficiency virus 1, MT4, 120 h
[9] = system: Human immunodeficiency virus 1; assay: Antiviral activity against HIV1 harboring reverse transcriptase L100I mutant infected in human MT4 cells assessed as reduction in virus-induced cytopathic effect incubated for 5 days by MTT assay; format: functional, organism-based; settings: Human immunodeficiency virus 1, MT4, 120 h
[10] = system: MT4; assay: Cytotoxicity against human MT4 cells assessed as reduction in cell viability incubated for 5 days by MTT assay; format: functional; settings: MT4, 120 h
[11] = molecular target: Human immunodeficiency virus type 1 reverse transcriptase (Human immunodeficiency virus 1, UniProt Q72547); assay: Inhibition of recombinant wild type HIV1 reverse transcriptase p66/p51 incubated for 40 mins by picogreen dye-based spectrofluorometric analysis
[12] = Metabolic stability in rat liver microsomes at 1 uM measured up to 45 mins in presence of NADPH by LC/MS/MS analysis; format: ADME, Microsome; settings: liver microsomes
[13] = Intrinsic clearance in human liver microsomes assessed per mg protein at 1 uM measured up to 45 mins in presence of NADPH by LC/MS/MS analysis; format: ADME, Microsome; settings: read-out: CLH
[14] = Metabolic stability in human liver microsomes at 1 uM measured up to 45 mins in presence of NADPH by LC/MS/MS analysis; format: ADME, Microsome
[15] = Intrinsic clearance in rat liver microsomes assessed per mg protein at 1 uM measured up to 45 mins in presence of NADPH by LC/MS/MS analysis; format: ADME, Microsome; settings: liver microsomes, read-out: CLH

| SMILES | solubility at 24 h [1] [µg/mL] | Ratio IC50 [2] | EC50 [3] [nM] | EC50 [4] [nM] | EC50 [5] [nM] | selectivity ratio at 120 h [6] | EC50 [7] [nM] | EC50 [8] [nM] | EC50 [9] [nM] | CC50 [10] [nM] | IC50 [11] [nM] | half-life at 1 µM [12] [min] | k el at 0.75 h, 1 µM [12] [s⁻¹] | microsomal CLint at 1 µM [13] [µL/min/mg] | k el at 0.75 h, 1 µM [14] [s⁻¹] | microsomal CLint at 1 µM [15] [µL/min/mg] |
| --- | --- | --- | --- | --- | --- | --- | --- | --- | --- | --- | --- | --- | --- | --- | --- | --- |
| CS(=O)(=O)O.N#Cc1ccc(Nc2nccc(Nc3c(F)cc(-c4ccc(C#N)cc4)cc3F)n2)cc1 | 0.88 |  |  |  |  |  |  |  |  |  |  |  |  |  |  |  |
| Cc1cc(-c2ccc(C#N)cc2)ccc1Oc1ccnc(Nc2ccc(C#N)cc2)n1 |  | 21 to 109 | 2.5 | 18.4 | 14400 | > 122000 | 6.2 | 8.7 | 47.1 | > 310000 | 5.5 |  |  |  |  |  |
| Cc1cc(-c2ccc(C#N)cc2)c(Cl)cc1Oc1ccnc(Nc2ccc(C#N)cc2)n1 |  | 21 to 109 | 4.6 | 32 | > 286000 | > 63300 | 11.9 | 3.7 | 8.5 | > 286000 | 18.8 |  |  |  |  |  |
| Cc1cc(-c2ccc(C#N)cc2)cc(C)c1Nc1ccnc(Nc2ccc(C#N)cc2)n1 | < 1 |  |  |  |  |  |  |  |  |  |  | 15.4 | 0.00075 | 47.4 | 0.00079 | 45 |
| N#Cc1ccc(Nc2nccc(Nc3c(F)cc(-c4ccc(C#N)cc4)cc3F)n2)cc1.O=S(=O)(O)c1ccccc1 | 0.39 |  |  |  |  |  |  |  |  |  |  |  |  |  |  |  |
| Cc1cc(C#N)cc(C)c1Oc1nc(Nc2ccc(C#N)cc2)nc(N)c1Br [ETRAVIRINE] | < 1 |  | 6.3 | 12 |  |  | 6.5 |  | 7.1 | > 4610 |  |  |  |  |  |  |
| N#Cc1ccc(Nc2nccc(Nc3c(F)cc(-c4ccc(C#N)cc4)cc3F)n2)cc1 | < 1 |  | 1.3 | 6.1 | 130 | > 238000 | 1.9 | 2.6 | 10.8 | > 295000 | 4.7 |  |  |  |  |  |
| COc1cc(-c2ccc(C#N)cc2)ccc1Oc1ccnc(Nc2ccc(C#N)cc2)n1 |  | 21 to 109 | 1.6 | 16.7 | > 298000 | > 192000 | 2 | 4.5 | 11.9 | > 298000 | 9.3 |  |  |  |  |  |
| Cc1cc(-c2ccc(C#N)cc2)ccc1Nc1ccnc(Nc2ccc(C#N)cc2)n1 |  | 21 to 109 | 2.1 | 9 | 240 | 4480 | 3 | 3 | 16.7 | 9200 | < 6.2 |  |  |  |  |  |
| COc1cc(-c2ccc(C#N)cc2)ccc1Nc1ccnc(Nc2ccc(C#N)cc2)n1 |  | 21 to 109 | 2.9 | 158 | > 299000 | > 106000 | 7.4 | 18.4 | 122 | > 299000 | 6 |  |  |  |  |  |
